Test results: ChEMBL document CHEMBL5576038, “Design of a novel long-acting dual GLP-1/GIP receptor agonist” (Bioorg Med Chem, 2024)
Activity calls are given as the source filed them. No cut-off for these calls is given here. Where a SMILES comes first, the peptide text is derived from it. [ ]: non-standard residue; d: D form. The star is where a group is joined. X1 = N[C@@H](CCCCNC(=O)CC[C@H](NC(=O)CCCCCCCCCCCCCCCCCCC(=O)O)C(=O)O)C(=O)NCCCC[C@H](N)C(=O)N[C@@H](CCCCNC(=O)C*)C(=O)O; Aib = CC(C)(N)C(=O)O

What was measured:
[1] = Elimination half life in Beagle dog at 10 nmol/kg, sc administered as single dose and measured upto 168 hrs by LC-MS/MS analysis; format: ADME, organism-based, Canis lupus familiaris; conditions: Beagle, in vivo, read-out: beta t1/2 (converted)
[2] = Tmax in Beagle dog at 10 nmol/kg, sc administered as single dose and measured upto 168 hrs by LC-MS/MS analysis; format: ADME, organism-based, Canis lupus familiaris; conditions: Beagle, in vivo, read-out: Tmax
[3] = AUC (0 to 168 hrs) in Beagle dog at 10 nmol/kg, sc administered as single dose and measured upto 168 hrs by LC-MS/MS analysis; format: ADME, organism-based, Canis lupus familiaris; conditions: Beagle, in vivo
Mus musculus [4] = assay: Hypoglycemic effect in male db/db mouse model assessed as blood glucose level at 30 nmol/kg, sc administered every 3 days for 31 days and measured 72 hrs post each dose; format: functional, organism-based; conditions: time 31.0 day
Mus musculus [5] = assay: Hypoglycemic effect in male db/db mouse model assessed as reduction in body weight at 30 nmol/kg, sc administered every 3 days for 60 days and measured every 3 days; format: functional, organism-based; conditions: time 60.0 day
[6] = target: Glucagon-like peptide 1 receptor (Homo sapiens, UniProt P43220); assay: Agonist activity at human GLP-1R expressed in CHO cells assessed as increase in cAMP production incubated for 30 mins by Eu-cAMP tracer based microplate reader analysis; format: functional, cell-based
Mus musculus [7] = assay: Glucose-lowering effect in male ICR mouse assessed as reduction in plasma glucose AUC (0 to 72 hrs) at 30 nmol/kg, sc pretreated for 71 hrs followed by […] administration and measured after 60 mins by oral glucose tolerance test; format: functional, organism-based
[8] = Cmax in Beagle dog at 10 nmol/kg, sc administered as single dose and measured upto 168 hrs by LC-MS/MS analysis; format: ADME, organism-based, Canis lupus familiaris; conditions: Beagle, in vivo, read-out: Cmax
Mus musculus [9] = assay: Hypoglycemic effect in male db/db mouse model assessed as reduction in food intake at 30 nmol/kg, sc administered every 3 days for 60 days and measured every 3 days; format: functional, organism-based; conditions: time 60.0 day
Mus musculus [10] = assay: Reduction in body weight in male ICR mouse at 30 nmol/kg, sc measured for 4 days; format: functional, organism-based; conditions: time 4.0 day
Mus musculus [11] = assay: Anti-obesity activity in male C57/B16 mouse model of diet-induced obesity assessed as reduction in body weight at 10 nmol/kg, sc administered every 3 days for 46 days and measured every 3 days relative to control; format: functional; design: scale not given: the % may be the effect or the level left; conditions: time 46 day
Mus musculus [12] = assay: Hypoglycemic effect in male db/db mouse model assessed as reduction in HbA1c level at 30 nmol/kg, sc administered every 3 days for 60 days and measured on day 18, 31, 37, 52, 58 and 60 by auto-chemistry analyzer; format: functional, organism-based; conditions: time 60.0 day
[13] = target: T1, Gastric inhibitory polypeptide receptor (Homo sapiens, UniProt P48546); assay: Agonist activity at human GIPR expressed in CHO cells assessed as increase in cAMP production incubated for 30 mins by Eu-cAMP tracer based microplate reader analysis; format: functional, cell-based
T1 sequence (P48546 whole entry): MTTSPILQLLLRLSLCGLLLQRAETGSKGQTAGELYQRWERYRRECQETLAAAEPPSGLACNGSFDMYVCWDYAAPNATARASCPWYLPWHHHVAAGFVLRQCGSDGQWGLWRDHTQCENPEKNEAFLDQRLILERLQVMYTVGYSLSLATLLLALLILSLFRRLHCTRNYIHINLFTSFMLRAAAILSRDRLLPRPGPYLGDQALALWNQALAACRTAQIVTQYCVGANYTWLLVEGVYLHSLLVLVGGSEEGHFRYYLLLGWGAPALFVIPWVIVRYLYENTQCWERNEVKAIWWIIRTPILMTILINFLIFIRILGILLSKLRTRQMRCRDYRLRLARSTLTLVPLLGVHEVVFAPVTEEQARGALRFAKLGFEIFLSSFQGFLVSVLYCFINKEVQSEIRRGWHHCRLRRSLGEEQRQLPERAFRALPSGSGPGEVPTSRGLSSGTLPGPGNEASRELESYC

Glucagon-like peptide 1 receptor, sequence (P43220 whole entry): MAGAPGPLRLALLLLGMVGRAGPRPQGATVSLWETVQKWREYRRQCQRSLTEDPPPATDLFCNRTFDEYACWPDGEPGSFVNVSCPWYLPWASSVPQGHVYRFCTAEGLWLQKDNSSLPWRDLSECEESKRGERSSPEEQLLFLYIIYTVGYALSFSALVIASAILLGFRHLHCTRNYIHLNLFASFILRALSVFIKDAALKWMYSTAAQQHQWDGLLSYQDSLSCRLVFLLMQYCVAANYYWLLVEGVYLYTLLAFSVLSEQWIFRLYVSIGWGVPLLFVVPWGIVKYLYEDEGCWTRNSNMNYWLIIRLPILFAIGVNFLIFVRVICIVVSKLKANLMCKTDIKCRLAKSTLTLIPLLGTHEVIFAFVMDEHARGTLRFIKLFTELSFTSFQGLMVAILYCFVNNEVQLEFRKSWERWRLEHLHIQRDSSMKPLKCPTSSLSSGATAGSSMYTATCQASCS

Compound `CC(C)C[C@H](NC(=O)[C@H](CC(C)C)NC(=O)[C@H](Cc1c[nH]c2ccccc12)NC(=O)[C@H](CCC(N)=O)NC(=O)[C@@H](NC(=O)[C@H](Cc1ccccc1)NC(=O)[C@H](CC(C)C)NC(=O)[C@H](CSCC(=O)NCCCC[C@H](NC(=O)[C@@H](N)CCCCNC(=O)[C@@H](N)CCCCNC(=O)CC[C@H](NC(=O)CCCCCCCCCCCCCCCCCCC(=O)O)C(=O)O)C(=O)O)NC(=O)[C@H](C)NC(=O)[C@H](C)NC(=O)[C@H](CCC(N)=O)NC(=O)[C@H](CCCCN)NC(=O)[C@H](CCC(=O)O)NC(=O)[C@H](CC(C)C)NC(=O)[C@H](Cc1ccc(O)cc1)NC(=O)[C@H](Cc1ccc(O)cc1)NC(=O)[C@H](CO)NC(=O)[C@H](Cc1ccc(O)cc1)NC(=O)[C@H](CC(=O)O)NC(=O)[C@H](CO)NC(=O)[C@@H](NC(=O)[C@H](Cc1ccccc1)NC(=O)[C@@H](NC(=O)CNC(=O)[C@H](CCC(=O)O)NC(=O)C(C)(C)NC(=O)[C@@H](N)Cc1ccc(O)cc1)[C@@H](C)O)[C@@H](C)O)C(C)C)C(=O)N[C@@H](C)C(=O)NCC(=O)NCC(=O)N1CCC[C@H]1C(=O)N[C@@H](CO)C(=O)N[C@@H](CO)C(=O)NCC(=O)N[C@@H](C)C(=O)N1CCC[C@H]1C(=O)N1CCC[C@H]1C(=O)N1CCC[C@H]1C(=O)N[C@@H](CO)C(N)=O` (H-Y[Aib]EGTFTSDYSYYLEKQAAC(X1)LFVQWLLAGGPSSGAPPPS-NH2) has a half-life [1] of 78.3 h, a Tmax [2] of 18.7 h and an AUC(0-t) at 168 h [3] of 23700 ng·h/mL. For the same compound, the Activity (Mus musculus [4]) was “Active”, the Activity (Mus musculus [5]) was “Active” and the EC50 [6] was 0.18 nM. The Activity (Mus musculus [7]) was “Active”, the Cmax [8] was 215 ng/mL and the Activity (Mus musculus [9]) was “Active”. The Activity (Mus musculus [10]) was “Active”, the Activity (Mus musculus [11]) was 21% and the Activity (Mus musculus [12]) was “Active”. For the same compound, the EC50 [13] was 0.06 nM.
